# Results: ChEMBL document CHEMBL1136418, “Synthesis and gamma-secretase activity of APP substrate-based hydroxyethylene dipeptide isosteres” (Bioorg Med Chem Lett, 2003)
# Columns and labels:
# [1] = molecular target: T1, Gamma-secretase subunit PEN-2 (Homo sapiens, UniProt Q9NZ42); assay: Compound required for inhibition of gamma-secretase-mediated formation of Abeta1-40 polypeptide; assay type: functional
# [2] = molecular target: T1, Gamma-secretase subunit PEN-2; assay: Compound required for inhibition of gamma-secretase-mediated formation of Abeta1-42 polypeptide; assay type: functional
# [3] = molecular target: T1, Gamma-secretase subunit PEN-2; assay: Inhibitory concentration against gamma-secretase was determined
# T1 sequence (Q9NZ42 whole entry): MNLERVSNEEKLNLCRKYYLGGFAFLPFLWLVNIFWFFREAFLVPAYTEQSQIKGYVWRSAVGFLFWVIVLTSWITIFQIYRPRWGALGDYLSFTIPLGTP
ED50 [1] [µM],ED50 [2] [µM],IC50 [3] [µM],SMILES
32,35,,CC[C@H](C)[C@H](NC(=O)[C@@H](NC(=O)[C@H](Cc1ccccc1)C[C@@H](O)[C@H](Cc1ccccc1)NC(=O)OC(C)(C)C)C(C)C)C(N)=O
732,230,,"CC(NC(=O)[C@H](Cc1ccccc1)C[C@@H](O)[C@H](Cc1ccccc1)NC(=O)OC(C)(C)C)C(=O)N[C@H](C(N)=O)[C@H](C)O (single isomer, unassigned)"
> 10,> 10,,CC(C)C[C@H](NC(=O)C(CC[C@H](Cc1ccccc1)NC(=O)OC(C)(C)C)Cc1ccccc1)C(=O)N[C@@H](Cc1ccccc1)C(N)=O (stereo partly specified)
0.036,0.014,0.3,CC(C)C[C@H](NC(=O)[C@H](Cc1ccccc1)C[C@@H](O)[C@H](Cc1ccccc1)NC(=O)OC(C)(C)C)C(=O)N[C@@H](Cc1ccccc1)C(N)=O
> 10,> 10,,CC(C)C[C@H](NC(=O)[C@H](CN)C[C@@H](O)[C@H](Cc1ccccc1)NC(=O)OC(C)(C)C)C(=O)N[C@@H](Cc1ccccc1)C(N)=O

# The next lines start with the molecule.
SMILES,ED50 [1] [µM],ED50 [2] [µM],IC50 [3] [µM]
CCC(C)[C@H](NC(=O)[C@@H](NC(=O)[C@@H](C[C@@H](O[Si](C)(C)C(C)(C)C)[C@H](C)NC(=O)OC(C)(C)C)[C@@H](C)O[Si](C)(C)C(C)(C)C)C(C)C)C(N)=O (stereo partly specified),> 10,> 10,
CCC(C)[C@H](NC(=O)[C@@H](NC(=O)[C@@H](C[C@@H](O[Si](C)(C)C(C)(C)C)[C@H](C)NC(=O)OC(C)(C)C)[C@H](C)O[Si](C)(C)C(C)(C)C)C(C)C)C(N)=O (stereo partly specified),> 10,> 10,
CCC(C)C(C[C@@H](O[Si](C)(C)C(C)(C)C)[C@@H](NC(=O)OC(C)(C)C)C(C)C)C(=O)N[C@@H](C)C(=O)N[C@H](C(N)=O)C(C)O (stereo partly specified),> 10,> 10,
CCC(C)[C@H](NC(=O)[C@@H](NC(=O)[C@H](C[C@@H](O[Si](C)(C)C(C)(C)C)[C@H](C)NC(=O)OC(C)(C)C)C(C)O[Si](C)(C)C(C)(C)C)C(C)C)C(N)=O (stereo partly specified),> 10,> 10,
CC(C)C[C@H](NC(=O)/C(=C/C[C@H](Cc1ccccc1)NC(=O)OC(C)(C)C)Cc1ccccc1)C(=O)N[C@@H](Cc1ccccc1)C(N)=O,> 10,> 10,
